{"source": "patent US10035790B2", "about": "“RORγ modulators” (BRISTOL-MYERS SQUIBB COMPANY, priority 2012, dated 2018)"}
{"target": "T1, ligand binding domain of human RORγ (A262-S507) (Homo sapiens, UniProt P51449)", "T1 construct": "made in house; host or cells: E. coli", "T1 sequence (P51449 262-507)": "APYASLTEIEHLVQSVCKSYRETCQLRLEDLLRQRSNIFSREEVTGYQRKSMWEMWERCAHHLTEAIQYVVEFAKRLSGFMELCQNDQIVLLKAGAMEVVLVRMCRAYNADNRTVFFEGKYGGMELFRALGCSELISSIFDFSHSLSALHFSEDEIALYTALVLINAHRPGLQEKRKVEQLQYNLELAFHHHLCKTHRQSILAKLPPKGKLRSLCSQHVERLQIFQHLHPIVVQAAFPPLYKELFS", "assay": "General RORγ SPA binding assay (competition with [3H]25-hydroxycholesterol)", "details": "RORγ SPA binding assay, inhibition of [3H]25-hydroxycholesterol binding; read-out: IC50", "summary_of_the_method": "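Step one: compound meets 50 nM nickel-purified, His-tagged protein from E. coli for 15 min at room temperature (PBS, 0.5% fatty acid free BSA). Step two: radioligand is added for another 15 min. Step three: SPA beads are added for 30 min before scintillation reading and IC50 fitting.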", "units": {"IC50": "nM"}}
{"compound": "Cc1cc(C)cc(CNC(=O)c2cnc(C)nc2C2CCN(C(=O)Cc3cccc(F)c3)CC2)c1", "note": "[Compound A22, N-(3,5-dimethylbenzyl)-4-(1-(2-(3-fluorophenyl)acetyl)piperidin-4-yl)-2-methylpyrimidine-5-carboxamide]", "IC50": 235}
{"compound": "Cc1ncc(C(=O)NCCOc2ccccc2)c(C2CCN(C(=O)Cc3c(F)cccc3F)CC2)n1", "note": "[Compound A20, 4-(1-(2-(2,6-difluorophenyl)acetyl)piperidin-4-yl)-2-methyl-N-(2-phenoxyethyl)pyrimidine-5-carboxamide]", "IC50": 158}
{"compound": "Cc1ncc(C(O)(CN=[N+]=[N-])COc2cccc(C(F)(F)F)n2)c(C2CCN(C(=O)Nc3c(F)cccc3F)CC2)n1", "note": "(stereo not drawn) [Compound N33, 4-{5-[2-Azido-1-hydroxy-1-({[6-(trifluoromethyl)pyridin-2-yl]oxy}methyl)ethyl]-2-methylpyrimidin-4-yl}-N-(2,6-difluorophenyl)piperidine-1-carboxamide]", "IC50": 2.9}
{"compound": "C/C(=N\\Oc1cccc(C(F)(F)F)c1)c1cnc(C)nc1C1CCN(C(=O)Nc2c(F)cccc2F)CC1", "note": "[Compound B43, N-(2,6-Difluorophenyl)-4-{2-methyl-5-[(1E)-N-{[3-(trifluoromethyl)phenyl]oxy}ethanimidoyl]pyrimidin-4-yl}piperidine-1-carboxamide]", "IC50": 13.5}
{"compound": "Cc1nc(C)c(-c2nnc(-c3cccc(C(F)(F)F)n3)o2)c(C2CCN(C(=O)Cc3c(F)cccc3F)CC2)n1", "note": "[Compound C6, 2-(2,6-difluorophenyl)-1-(4-(2,6-dimethyl-5-(5-(6-(trifluoromethyl)pyridin-2-yl)-1,3,4-oxadiazol-2-yl)pyrimidin-4-yl)piperidin-1-yl)ethanone]", "IC50": 5.2}
{"compound": "Cc1cc(C)cc(COC(C)(COC[C@H](O)CO)c2cnc(C)nc2C2CCN(C(=O)Cc3c(F)cccc3F)CC2)c1", "note": "(mixture of isomers) [Compound E9, 2-(2,6-Difluorophenyl)-1-(4-(5-(1-((R)-2,3-dihydroxypropoxy)-2-(3,5-dimethylbenzyloxy)propan-2-yl)-2-methylpyrimidin-4-yl)piperidin-1-yl)ethanone]", "IC50": 6.2}
{"compound": "Cc1nc(C)c(-c2nnc(-c3ccnc(C(F)(F)F)n3)o2)c(C2CCN(C(=O)c3c(F)cccc3F)CC2)n1", "note": "[Compound C24, 4-{1-[(2,6-Difluorophenyl)carbonyl]piperidin-4-yl}-2,6-dimethyl-5-{5-[2-(trifluoromethyl)pyrimidin-4-yl]-1,3,4-oxadiazol-2-yl}pyrimidine]", "IC50": 277}
{"compound": "Cc1ncc(C(O)(CN)COc2cccc(C(F)(F)F)n2)c(C2CCN(C(=O)Nc3c(F)cccc3F)CC2)n1", "note": "(stereo not drawn) [Compound N34, 4-{5-[2-Amino-1-hydroxy-1-({[6-(trifluoromethyl)pyridin-2-yl]oxy}methyl)ethyl]-2-methylpyrimidin-4-yl}-N-(2,6-difluorophenyl)piperidine-1-carboxamide]", "IC50": 12.8}
{"compound": "Cc1nc(C)c(-c2nnc(-c3ccnc(Cl)c3)o2)c(C2CCN(C(=O)Cc3c(F)cccc3F)CC2)n1", "note": "[Compound C22, 1-(4-(5-(5-(2-chloropyridin-4-yl)-1,3,4-oxadiazol-2-yl)-2,6-dimethylpyrimidin-4-yl)piperidin-1-yl)-2-(2,6-difluorophenyl)ethanone]", "IC50": 3960}
{"compound": "COc1cc(CNC(=O)c2cnc(C)nc2C2CCN(C(=O)Cc3c(F)cccc3F)CC2)cc(Cl)n1", "note": "[Compound A52, N-((2-chloro-6-methoxypyridin-4-yl)methyl)-4-(1-(2-(2,6-difluorophenyl)acetyl)piperidin-4-yl)-2-methylpyrimidine-5-carboxamide]", "IC50": 7.5}
{"compound": "CCOc1ncc(C(=O)NCc2cccc(Cl)c2)c(C2CCN(C(=O)Cc3c(F)cccc3F)CC2)n1", "note": "[Compound A93, N-(3-chlorobenzyl)-4-(1-(2-(2,6-difluorophenyl)acetyl)piperidin-4-yl)-2-ethoxypyrimidine-5-carboxamide]", "IC50": 16}
{"compound": "CNc1nc(C)nc(C2CCN(C(=O)Cc3c(F)cccc3F)CC2)c1C(=O)NCc1cccc(Cl)c1", "note": "[Compound A109]", "IC50": 7.3}
{"compound": "Cc1nc(N)nc(C2CCN(C(=O)Nc3c(F)cccc3F)CC2)c1C(=O)COc1cccc(C(F)(F)F)n1", "note": "[Compound M11, 4-[2-Amino-6-methyl-5-({[6-(trifluoromethyl)pyridin-2-yl]oxy}acetyl)pyrimidin-4-yl]-N-(2,6-difluorophenyl)piperidine-1-carboxamide]", "IC50": 2.8}
{"compound": "Cc1cc(C)cc(CC=Cc2cnc(C)nc2C2CCN(C(=O)Cc3c(F)cccc3F)CC2)c1", "note": "(mixture of isomers) [Compound J1, (E)-2-(2,6-Difluorophenyl)-1-(4-(5-(3-(3,5-dimethylphenyl)prop-1-enyl)-2-methylpyrimidin-4-yl)piperidin-1-yl)ethanone]", "IC50": 46}
{"compound": "Cc1ncc(C(C)(O)CNc2nccc(C(F)(F)F)n2)c(C2CCN(C(=O)Nc3c(F)cccc3F)CC2)n1", "note": "(stereo not drawn) [Compound D21, N-(2,6-Difluorophenyl)-4-[5-(1-hydroxy-1-methyl-2-{[4-(trifluoromethyl)pyrimidin-2-yl]amino}ethyl)-2-methylpyrimidin-4-yl]piperidine-1-carboxamide]", "IC50": 47.7}
{"compound": "Cc1nc(C)c(-c2nc(-c3cccc(C(F)(F)F)c3)no2)c(C2CCN(C(=O)Cc3c(F)cccc3F)CC2)n1", "note": "[Compound C1, 4-{1-[(2,6-Difluorophenyl)acetyl]piperidin-4-yl}-2,6-dimethyl-5-{3-[3-(trifluoromethyl)phenyl]-1,2,4-oxadiazol-5-yl}pyrimidine]", "IC50": 114}
{"compound": "Nc1ncc(C(O)COc2cccc(C(F)(F)F)n2)c(C2CCN(C(=O)Nc3c(F)cccc3F)CC2)n1", "note": "(stereo not drawn) [Compound N3, 4-[2-Amino-5-(1-hydroxy-2-{[6-(trifluoromethyl)pyridin-2-yl]oxy}ethyl)pyrimidin-4-yl]-N-(2,6-difluorophenyl)piperidine-1-carboxamide]", "IC50": 2.3}
{"compound": "CSc1ncc(C(C)=NOc2ccnc(C(F)(F)F)c2)c(C2CCN(C(=O)Nc3c(F)cccc3F)CC2)n1", "note": "(mixture of isomers) [Compound B52, N-(2,6-Difluorophenyl)-4-{2-(methylthio)-5-[(1E)-N-{[2-(trifluoromethyl)pyridin-4-yl]oxy}ethanimidoyl]pyrimidin-4-yl}piperidine-1-carboxamide]", "IC50": 334}
{"compound": "COc1ncc(C(O)COc2cccc(C(F)(F)F)n2)c(C2CCN(C(=O)Nc3c(F)cccc3F)CC2)n1", "note": "(stereo not drawn) [Compound N4, N-(2,6-Difluorophenyl)-4-[5-(1-hydroxy-2-{[6-(trifluoromethyl)pyridin-2-yl]oxy}ethyl)-2-(methyloxy)pyrimidin-4-yl]piperidine-1-carboxamide]", "IC50": 12.1}
{"compound": "Cc1nc(C)c(-c2nc(-c3cccc(C(F)(F)F)c3)no2)c(C2CCN(C(=O)Nc3c(F)cccc3F)CC2)n1", "note": "[Compound C63, N-(2,6-difluorophenyl)-4-(2,6-dimethyl-5-{3-[3-(trifluoromethyl)phenyl]-1,2,4-oxadiazol-5-yl}pyrimidin-4-yl)piperidine-1-carboxamide]", "IC50": 281}
{"compound": "CCNC(=O)c1cc(CNC(=O)c2cnc(C)nc2C2CCN(C(=O)Cc3c(F)cccc3F)CC2)ccn1", "note": "[Compound A77, 4-(1-(2-(2,6-difluorophenyl)acetyl)piperidin-4-yl)-N-((2-(ethylcarbamoyl)pyridin-4-yl)methyl)-2-methylpyrimidine-5-carboxamide]", "IC50": 1340}
{"compound": "Cc1cc(-c2nnc(-c3c(C)nc(C)nc3C3CCN(C(=O)Cc4c(F)cccc4F)CC3)o2)cc(Cl)n1", "note": "[Compound C19, 1-(4-(5-(5-(2-chloro-6-methylpyridin-4-yl)-1,3,4-oxadiazol-2-yl)-2,6-dimethylpyrimidin-4-yl)piperidin-1-yl)-2-(2,6-difluorophenyl)ethanone]", "IC50": 269}
{"compound": "Cc1cc(C)nc(NCC(C)(O)c2cnc(C)nc2C2CCN(C(=O)Cc3c(F)cccc3F)CC2)c1", "note": "(stereo not drawn) [Compound D6, 2-(2,6-difluorophenyl)-1-(4-(5-(1-((4,6-dimethylpyridin-2-yl)amino)-2-hydroxypropan-2-yl)-2-methylpyrimidin-4-yl)piperidin-1-yl)ethanone]", "IC50": 23.3}
{"compound": "[2H]C([2H])(C(=O)N1CCC(c2nc(C)nc(C)c2-c2nnc(-c3ccnc(C(F)(F)F)n3)o2)CC1)c1c(F)cccc1F", "note": "[Compound C38, 4-{1-[(2,6-Difluorophenyl)acetyl-2,2-d2]piperidin-4-yl}-2,6-dimethyl-5-{5-[2-(trifluoromethyl)pyrimidin-4-yl]-1,3,4-oxadiazol-2-yl}pyrimidine]", "IC50": 8}
{"compound": "Cc1ncc(C(O)(CN)COc2cccc(C(F)(F)F)n2)c(C2CCN(C(=O)Cc3c(F)cccc3F)CC2)n1", "note": "(stereo not drawn) [Compound N35, 1-Amino-2-(4-{1-[(2,6-difluorophenyl)acetyl]piperidin-4-yl}-2-methylpyrimidin-5-yl)-3-{[6-(trifluoromethyl)pyridin-2-yl]oxy}propan-2-ol]", "IC50": 5.5}
{"compound": "CCNC(=O)NCC(O)(COc1cccc(C(F)(F)F)n1)c1cnc(C)nc1C1CCN(C(=O)Nc2c(F)cccc2F)CC1", "note": "(stereo not drawn) [Compound N36, N-(2,6-Difluorophenyl)-4-{5-[2-{[(ethylamino)carbonyl]amino}-1-hydroxy-1-({[6-(trifluoromethyl)pyridin-2-yl]oxy}methyl)ethyl]-2-methylpyrimidin-4-yl}piperidine-1-carboxamide]", "IC50": 47.8}
{"compound": "C/C(=N\\Oc1ccnc(C(F)(F)F)c1)c1cnc(C)nc1C1CCN(C(=O)Cc2c(F)cccc2F)CC1(F)F", "note": "(stereo not drawn) [Compound B34, (E)-1-(3,3-Difluoro-4-(2-methyl-5-(1-(2-(trifluoromethyl)pyridin-4-yloxyimino)ethyl)pyrimidin-4-yl)piperidin-1-yl)-2-(2,6-difluorophenyl)ethanone]", "IC50": 12.5}
